Laboratory results reported in patent EP0636626A1, “Pyrazolopyrimidine Derivatives” (LABORATOIRES GLAXO SA, priority 1993, dated 1995).

Molecular target: T1, cGMP specific PDE (Phosphodiesterase type V) (Bos taurus, UniProt Q28156)
T1 construct: The PDE V in enzyme is isolated from bovine aorta; from tissue; host or cells: bovine aorta
Assay: cGMP specific PDE (PDE V) inhibition, "one step" assay
Assay type: biochemical
Details: PDE V isolated from bovine aorta; concentration of inhibitor required for 50% inhibition of enzyme activity; read-out: IC₅₀
Protocol: The affinities of compounds of formula (I) for cGMP specific PDE (Phosphodiesterase type V) may be assessed by determination of their IC₅₀ values (the concentration of inhibitor required for 50% inhibition of enzyme activity). The PDE V in enzyme is isolated from bovine aorta, essentially by the method of Lugnier et al. in Biochem. Pharmacology 35, 1743 (1986) and assays are performed using a "one step" assay adapted from the method of Wells et al in Biochim. Biophys. Acta 384, 430 (1975).
Compounds of the invention were assayed according to the procedure described hereinabove.

Row | Structure (SMILES) | IC50
1 | CCCOc1ccc(-c2nc(C)cs2)cc1-c1nc2c(c(C)nn2CC)c(=O)[nH]1 [Example 37, 1-Ethyl-3-methyl-6-[2-propoxy-5-(4-methyl-2-thiazolyl)phenyl]-1,5-dihydro-pyrazolo[3,4-d] pyrimidin-4-one] | 1 to 10 nM
2 | CCCOc1ccc(NC(=O)C(F)(F)F)cc1-c1nc2c(c(C)nn2C)c(=O)[nH]1 [Example 41, 1,3-Dimethyl-6-(2-propoxy-5-trifluoroacetamidophenyl)-1,5-dihydro-pyrazolo[3,4-d]pyrimidin-4-one] | 1 to 10 nM
3 | CCCOc1ccc(-c2ccc(C)s2)cc1-c1nc2c(c(C)nn2C)c(=O)[nH]1 [Example 69, 1,3-Dimethyl-6-[2-propoxy-5-(5-methyl-2-thienyl)phenyl]-1,5-dihydropyrazolo[3,4-d]pyrimidin-4-one] | 1 to 10 nM
4 | CCCOc1ccc(-c2csc(C)n2)cc1-c1nc2c(c(C)nn2CC)c(=O)[nH]1 [Example 63, 1-Ethyl-3-methyl-6-[2-propoxy-5-(2-methyl-4-thiazolyl)phenyl]-1,5-dihydropyrazolo[3,4-d]pyrimidin-4-one] | 1 to 10 nM
5 | CCCOc1ccc(NC(=O)OCC)cc1-c1nc2c(c(C)nn2C)c(=O)[nH]1 [Example 22, 1,3-Dimethyl-6-(2-propoxy-5-ethoxycarbonylaminophenyl)-1,5-dihydropyrazolo[3,4-d]pyrimidin-4-one] | 1 to 10 nM
6 | CCCOc1ccc(NC(=O)c2ccc(F)cc2)cc1-c1nc2c(c(C)nn2C)c(=O)[nH]1 [Example 18, 1,3-Dimethyl-6-[2-propoxy-5-(4-fluorobenzamido)phenyl]-1,5-dihydropyrazolo[3,4-d]pyrimidin-4-one] | 1 to 10 nM
7 | CCCOc1ccc(NC(=O)c2cccs2)cc1-c1nc2c(c(C)nn2C)c(=O)[nH]1 [Example 19, 1,3-Dimethyl-6-[2-propoxy-5-((2-thienyl)carboxamido)phenyl]-1,5-dihydropyrazolo[3,4-d]pyrimidin-4-one] | 1 to 10 nM

Other lines, results leading:

Row | IC50 | Structure (SMILES)
8 | 1 to 10 nM | CCCOc1ccc(-c2n[nH]c(-c3ccccc3)n2)cc1-c1nc2c(c(C)nn2C)c(=O)[nH]1 [Example 67, 1,3-Dimethyl-6-[2-propoxy-5-(3-phenyl-1,2,4-triazol-5-yl)phenyl]-1,5-dihydropyrazolo[3,4-d] pyrimidin-4-one]
9 | 1 to 10 nM | CCCOc1ccc(NC(=S)NCC)cc1-c1nc2c(c(C)nn2C)c(=O)[nH]1 [Example 31, 1,3-Dimethyl-6-(2-propoxy-5-ethylthioureidophenyl)-1,5-dihydro-pyrazolo[3,4-d]pyrimidin-4-one]
10 | 1 to 10 nM | CCCOc1ccc(-c2csc(C)n2)cc1-c1nc2c(c(C)nn2C)c(=O)[nH]1 [Example 51, 1,3-Dimethyl-6-[2-propoxy-5-(2-methyl-4-thiazolyl)phenyl]-1,5-dihydro-pyrazolo[3,4-d]pyrimidin-4-one]
11 | 1 to 10 nM | CCCOc1ccc(NC(C)=O)cc1-c1nc2c(c(C)nn2C)c(=O)[nH]1 [Example 15, 1,3-Dimethyl-6-(2-propoxy-5-acetamidophenyl)-1,5-dihydropyrazolo[3,4-d]pyrimidin-4-one]
12 | 1 to 10 nM | CCCOc1ccc(-c2csc(-c3cccnc3)n2)cc1-c1nc2c(c(C)nn2CC)c(=O)[nH]1 [Example 65, 1-Ethyl-3-methyl-6-[2-propoxy-5-(2-(3-pyridyl)-4-thiazolyl)phenyl]-1,5-dihydropyrazolo[3,4-d]pyrimidin-4-one]
13 | 1 to 10 nM | CCCOc1ccc(N)cc1-c1nc2c(c(C)nn2C)c(=O)[nH]1 [Example 7, 1,3-Dimethyl-6-(2-propoxy-5-aminophenyl)-1,5-dihydropyrazolo[3,4-d]pyrimidin-4-one]
14 | 1 to 10 nM | CCCOc1ccc(NS(C)(=O)=O)cc1-c1nc2c(c(C)nn2C)c(=O)[nH]1 [Example 11, 1,3-Dimethyl-6-(2-propoxy-5-methanesulfonamidophenyl)-1,5-dihydropyrazolo[3,4-d]pyrimidin-4-one]
15 | 1 to 10 nM | CCCOc1ccc(NC(=O)NCC)cc1-c1nc2c(c(C)nn2C)c(=O)[nH]1 [Example 30, 1,3-Dimethyl-6-(2-propoxy-5-ethylureidophenyl)-1,5-dihydro-pyrazolo[3,4-d]pyrimidin-4-one]
